Measured values published in ChEMBL document CHEMBL3875185, “Structure-anticonvulsant activity studies in the group of (E)-N-cinnamoyl aminoalkanols derivatives monosubstituted in phenyl ring with 4-Cl, 4-CH3 or 2-CH3” (Bioorg Med Chem, 2017).
Activity calls are given as the source filed them. No cut-off for these calls is given here.

Experiments:
[1] = biological target: D(3) dopamine receptor (Homo sapiens) (UniProt P35462); test: Displacement of [3H]methyl-spiperone from human recombinant dopamine D3 receptor expressed in CHO cells at 100 uM measured after 60 mins by scintillation counting method relative to control; assay type: cell-based
Sequence of D(3) dopamine receptor (Homo sapiens) (P35462 whole entry): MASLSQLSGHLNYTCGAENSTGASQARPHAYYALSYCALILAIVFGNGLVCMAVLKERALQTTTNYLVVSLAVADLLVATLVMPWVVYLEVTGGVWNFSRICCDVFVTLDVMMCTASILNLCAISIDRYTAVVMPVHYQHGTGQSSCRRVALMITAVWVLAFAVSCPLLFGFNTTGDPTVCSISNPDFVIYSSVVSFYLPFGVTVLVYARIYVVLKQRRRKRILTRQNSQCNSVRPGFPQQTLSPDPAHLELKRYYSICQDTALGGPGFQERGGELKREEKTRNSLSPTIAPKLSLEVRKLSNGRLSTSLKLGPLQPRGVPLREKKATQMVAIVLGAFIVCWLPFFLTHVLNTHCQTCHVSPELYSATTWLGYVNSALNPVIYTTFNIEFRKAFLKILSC

[2] = system: Mus musculus; test: Anticonvulsant activity in ip dosed maximal electroshock induced seizure mouse model assessed as suppression in hindlimb tonic extension; assay type: functional
[3] = Neurotoxicity in ip dosed Sprague-Dawley rat assessed as behavioral change; assay type: toxicity, organism-based; details: in vivo
[4] = biological target: Substance-P receptor (Homo sapiens) (UniProt P25103); test: Displacement of [125I]BH-SP from NK1 receptor in human U373MG cells at 100 uM measured after 30 mins by scintillation counting method relative to control; assay type: cell-based; details: U-373MG ATCC
Sequence of Substance-P receptor (Homo sapiens) (P25103 whole entry): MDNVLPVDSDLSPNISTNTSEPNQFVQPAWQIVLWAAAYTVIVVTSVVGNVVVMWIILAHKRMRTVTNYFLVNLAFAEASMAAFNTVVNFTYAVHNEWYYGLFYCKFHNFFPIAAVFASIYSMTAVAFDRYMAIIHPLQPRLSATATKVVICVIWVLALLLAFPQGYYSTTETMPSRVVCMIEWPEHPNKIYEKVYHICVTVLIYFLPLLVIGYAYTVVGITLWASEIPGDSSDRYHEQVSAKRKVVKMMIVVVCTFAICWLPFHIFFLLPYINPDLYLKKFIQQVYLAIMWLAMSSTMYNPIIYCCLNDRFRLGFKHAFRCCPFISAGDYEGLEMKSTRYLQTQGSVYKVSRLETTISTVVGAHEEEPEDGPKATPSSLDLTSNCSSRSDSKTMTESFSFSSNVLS

[5] = system: Mus musculus; test: Neurotoxicity in mouse assessed as induction of motor impairment at 100 mg/kg, ip measured at 4 hrs post dose by rotarod method; assay type: toxicity, organism-based; details: in vivo
[6] = biological target: Melatonin receptor type 1A (Homo sapiens) (UniProt P48039); test: Displacement of [125I]2-iodomelatonin from human recombinant MT1 receptor expressed in CHO cells at 100 uM measured after 60 mins by scintillation counting method relative to control; assay type: cell-based
Sequence of Melatonin receptor type 1A (Homo sapiens) (P48039 whole entry): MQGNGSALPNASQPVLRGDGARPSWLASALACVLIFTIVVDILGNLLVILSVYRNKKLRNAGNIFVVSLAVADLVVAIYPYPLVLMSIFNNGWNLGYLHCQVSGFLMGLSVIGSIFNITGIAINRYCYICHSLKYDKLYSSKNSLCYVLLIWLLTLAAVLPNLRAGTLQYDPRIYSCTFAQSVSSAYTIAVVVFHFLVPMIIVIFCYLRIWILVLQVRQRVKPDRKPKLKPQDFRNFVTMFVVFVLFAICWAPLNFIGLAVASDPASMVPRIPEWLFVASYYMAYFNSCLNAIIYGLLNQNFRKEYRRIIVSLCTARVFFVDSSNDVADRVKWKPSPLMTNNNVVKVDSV

[7] = biological target: 5-hydroxytryptamine receptor 5A (Homo sapiens) (UniProt P47898); test: Displacement of [3H]LSD from human recombinant 5HT5A receptor expressed in HEK293 cells at 100 uM measured after 120 mins by scintillation counting method relative to control; assay type: cell-based
Sequence of 5-hydroxytryptamine receptor 5A (Homo sapiens) (P47898 whole entry): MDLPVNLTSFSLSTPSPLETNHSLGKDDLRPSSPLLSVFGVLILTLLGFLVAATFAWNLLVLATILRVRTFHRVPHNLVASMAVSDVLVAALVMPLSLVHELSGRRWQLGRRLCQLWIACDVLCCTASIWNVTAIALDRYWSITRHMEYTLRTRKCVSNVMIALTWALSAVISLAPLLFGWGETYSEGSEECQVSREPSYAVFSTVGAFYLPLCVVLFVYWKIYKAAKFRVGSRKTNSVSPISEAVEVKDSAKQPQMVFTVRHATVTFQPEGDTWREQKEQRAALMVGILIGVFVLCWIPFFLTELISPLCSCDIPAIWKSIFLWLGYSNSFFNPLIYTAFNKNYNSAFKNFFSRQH

[8] = biological target: Sodium-dependent dopamine transporter (Homo sapiens) (UniProt Q01959); test: Displacement of [3H]BTCP from human recombinant dopamine transporter expressed in CHO cells at 100 uM measured after 120 mins by scintillation counting method relative to control; assay type: cell-based
Sequence of Sodium-dependent dopamine transporter (Homo sapiens) (Q01959 whole entry): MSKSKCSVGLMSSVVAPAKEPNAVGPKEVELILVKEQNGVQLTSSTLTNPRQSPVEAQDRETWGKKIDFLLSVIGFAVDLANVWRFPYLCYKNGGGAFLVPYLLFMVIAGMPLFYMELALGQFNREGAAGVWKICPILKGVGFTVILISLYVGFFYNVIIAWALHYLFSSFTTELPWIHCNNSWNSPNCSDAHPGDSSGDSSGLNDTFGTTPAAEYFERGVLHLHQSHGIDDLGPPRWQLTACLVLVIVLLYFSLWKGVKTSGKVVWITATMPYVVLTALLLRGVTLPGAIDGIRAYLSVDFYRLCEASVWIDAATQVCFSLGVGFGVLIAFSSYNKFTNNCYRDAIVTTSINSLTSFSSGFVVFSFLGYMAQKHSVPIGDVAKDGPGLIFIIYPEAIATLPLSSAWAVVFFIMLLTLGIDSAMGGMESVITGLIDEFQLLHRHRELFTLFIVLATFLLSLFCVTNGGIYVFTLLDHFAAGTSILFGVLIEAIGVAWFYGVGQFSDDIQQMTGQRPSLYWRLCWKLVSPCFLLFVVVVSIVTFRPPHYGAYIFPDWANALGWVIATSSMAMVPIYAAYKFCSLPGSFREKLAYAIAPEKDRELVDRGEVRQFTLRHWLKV

[9] = biological target: 5-hydroxytryptamine receptor 2B (Homo sapiens) (UniProt P41595); test: Displacement of [125I]DOI from human recombinant 5HT2B receptor expressed in CHO cells at 100 uM measured after 60 mins by scintillation counting method relative to control; assay type: cell-based
Sequence of 5-hydroxytryptamine receptor 2B (Homo sapiens) (P41595 whole entry): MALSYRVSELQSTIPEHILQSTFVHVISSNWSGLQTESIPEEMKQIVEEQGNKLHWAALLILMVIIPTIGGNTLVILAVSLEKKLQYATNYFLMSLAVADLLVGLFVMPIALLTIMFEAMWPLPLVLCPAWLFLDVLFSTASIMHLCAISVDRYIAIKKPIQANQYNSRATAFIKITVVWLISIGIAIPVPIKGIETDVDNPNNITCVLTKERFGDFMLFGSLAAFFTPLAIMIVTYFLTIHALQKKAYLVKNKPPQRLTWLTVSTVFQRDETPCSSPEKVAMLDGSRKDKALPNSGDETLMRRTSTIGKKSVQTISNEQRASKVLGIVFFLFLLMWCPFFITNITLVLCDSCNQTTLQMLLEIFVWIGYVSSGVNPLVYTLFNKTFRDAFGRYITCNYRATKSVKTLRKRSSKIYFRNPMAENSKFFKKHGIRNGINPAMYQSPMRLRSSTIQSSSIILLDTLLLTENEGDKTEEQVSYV

[10] = system: Mus musculus; test: Anticonvulsant activity in 6-Hz induced seizure mouse model assessed as restoration of normal activity within 10 secs from stimulation at 100 mg/kg, ip at 32 mA measured at 0.5 hrs post dose; assay type: functional, organism-based
[11] = biological target: Adrenergic receptor alpha-1 (Rattus norvegicus) (UniProt P15823+P23944+P43140); test: Displacement of [3H]prazosin from rat cerebral cortex alpha-1 adrenergic receptor at 100 uM measured after 60 mins by scintillation counting method relative to control
[12] = species on record: Rattus norvegicus; test: Displacement of [3H]GABA from rat cerebral cortex GABA receptor at 100 uM
[13] = biological target: T1, C-C chemokine receptor type 1 (Homo sapiens) (UniProt P32246); test: Displacement of [125I]MIP-1a from human recombinant CCR1 receptor expressed in HEK293 cells at 100 uM measured after 120 mins by scintillation counting method relative to control; assay type: cell-based
T1 sequence (whole entry): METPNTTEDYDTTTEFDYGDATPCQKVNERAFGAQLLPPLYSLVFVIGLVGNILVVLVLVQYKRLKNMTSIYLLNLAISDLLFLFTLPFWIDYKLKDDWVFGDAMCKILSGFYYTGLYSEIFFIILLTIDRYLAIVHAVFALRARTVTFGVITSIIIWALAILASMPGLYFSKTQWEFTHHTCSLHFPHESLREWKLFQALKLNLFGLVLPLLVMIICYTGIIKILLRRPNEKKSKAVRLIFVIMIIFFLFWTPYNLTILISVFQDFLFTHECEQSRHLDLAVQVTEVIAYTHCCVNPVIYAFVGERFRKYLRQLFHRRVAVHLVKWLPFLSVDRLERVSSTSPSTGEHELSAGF

[14] = biological target: T2, Endothelin-1 receptor (Homo sapiens) (UniProt P25101); test: Displacement of [125I]endothelin-1 from human recombinant ETA receptor expressed in CHO cells at 100 uM measured after 120 mins by scintillation counting method relative to control; assay type: cell-based
T2 sequence (whole entry): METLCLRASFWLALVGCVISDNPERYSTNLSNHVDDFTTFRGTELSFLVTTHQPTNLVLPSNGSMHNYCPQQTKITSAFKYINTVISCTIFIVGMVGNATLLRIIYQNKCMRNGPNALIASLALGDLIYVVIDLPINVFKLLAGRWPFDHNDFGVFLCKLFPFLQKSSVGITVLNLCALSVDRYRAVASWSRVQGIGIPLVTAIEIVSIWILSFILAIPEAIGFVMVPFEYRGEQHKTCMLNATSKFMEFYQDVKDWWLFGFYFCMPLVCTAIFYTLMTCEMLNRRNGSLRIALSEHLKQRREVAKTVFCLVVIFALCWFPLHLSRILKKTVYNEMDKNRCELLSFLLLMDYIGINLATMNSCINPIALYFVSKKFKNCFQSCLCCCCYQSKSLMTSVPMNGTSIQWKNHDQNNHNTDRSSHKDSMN

[15] = system: Jurkat; test: Displacement of [3H]DTG from sigma receptor in human Jurkat cells at 100 uM measured after 120 mins by scintillation counting method relative to control; assay type: cell-based
[16] = biological target: Prostacyclin receptor (Homo sapiens) (UniProt P43119); test: Displacement of [3H]iloprost from human recombinant IP receptor expressed in HEK293 cells at 100 uM measured after 60 mins by scintillation counting method relative to control; assay type: cell-based
Sequence of Prostacyclin receptor (Homo sapiens) (P43119 whole entry): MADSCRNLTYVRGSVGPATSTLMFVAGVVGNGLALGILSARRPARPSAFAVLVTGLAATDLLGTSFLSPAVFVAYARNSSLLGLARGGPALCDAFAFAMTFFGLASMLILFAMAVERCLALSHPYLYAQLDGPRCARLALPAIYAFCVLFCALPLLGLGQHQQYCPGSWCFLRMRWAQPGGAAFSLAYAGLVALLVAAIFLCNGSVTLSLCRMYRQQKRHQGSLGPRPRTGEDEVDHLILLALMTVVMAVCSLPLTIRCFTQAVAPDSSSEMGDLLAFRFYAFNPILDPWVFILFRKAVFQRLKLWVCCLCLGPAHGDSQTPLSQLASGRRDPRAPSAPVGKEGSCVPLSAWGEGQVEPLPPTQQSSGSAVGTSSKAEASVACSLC

[17] = biological target: T3, Substance-K receptor (Homo sapiens) (UniProt P21452); test: Displacement of [125I]NKA from human recombinant NK2 receptor expressed in CHO cells at 100 uM measured after 60 mins by scintillation counting method relative to control; assay type: cell-based
T3 sequence (whole entry): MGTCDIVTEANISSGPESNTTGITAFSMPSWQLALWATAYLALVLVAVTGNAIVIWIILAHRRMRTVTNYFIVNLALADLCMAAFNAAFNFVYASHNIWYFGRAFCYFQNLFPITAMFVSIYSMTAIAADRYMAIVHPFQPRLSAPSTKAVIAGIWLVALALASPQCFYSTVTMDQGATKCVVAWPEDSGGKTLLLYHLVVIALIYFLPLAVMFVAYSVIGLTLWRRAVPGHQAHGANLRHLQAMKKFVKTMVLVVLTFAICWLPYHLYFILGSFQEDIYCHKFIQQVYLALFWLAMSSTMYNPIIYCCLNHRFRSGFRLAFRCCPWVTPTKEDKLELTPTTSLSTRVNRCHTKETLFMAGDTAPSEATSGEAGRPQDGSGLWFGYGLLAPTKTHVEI

[18] = system: Mus musculus; test: Neurotoxicity in ip dosed mouse assessed as induction of motor impairment by measuring time to peak effect by rotarod method; assay type: toxicity, organism-based; details: in vivo
[19] = biological target: Sodium-dependent serotonin transporter (Homo sapiens) (UniProt P31645); test: Displacement of [3H]imipramine from human recombinant 5HT transporter expressed in CHO cells at 100 uM measured after 60 mins by scintillation counting method relative to control; assay type: cell-based
Sequence of Sodium-dependent serotonin transporter (Homo sapiens) (P31645 whole entry, looked up): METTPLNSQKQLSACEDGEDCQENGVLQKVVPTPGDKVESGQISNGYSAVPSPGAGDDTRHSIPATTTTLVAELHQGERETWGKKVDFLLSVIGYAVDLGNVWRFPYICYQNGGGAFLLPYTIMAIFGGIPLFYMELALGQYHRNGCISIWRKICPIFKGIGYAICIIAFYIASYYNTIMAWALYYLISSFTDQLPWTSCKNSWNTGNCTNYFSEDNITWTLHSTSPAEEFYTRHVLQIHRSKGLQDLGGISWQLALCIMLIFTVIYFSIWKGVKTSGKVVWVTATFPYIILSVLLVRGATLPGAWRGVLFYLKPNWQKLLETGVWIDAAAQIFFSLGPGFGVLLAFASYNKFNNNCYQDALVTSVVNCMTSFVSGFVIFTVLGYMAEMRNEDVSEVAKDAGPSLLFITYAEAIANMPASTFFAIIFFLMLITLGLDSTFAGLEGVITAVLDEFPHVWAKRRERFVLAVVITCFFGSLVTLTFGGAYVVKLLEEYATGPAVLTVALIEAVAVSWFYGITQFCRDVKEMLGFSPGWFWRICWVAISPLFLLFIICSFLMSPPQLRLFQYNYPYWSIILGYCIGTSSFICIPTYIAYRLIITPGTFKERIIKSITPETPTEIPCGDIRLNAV

[20] = system: Mus musculus; test: Anticonvulsant activity in ip dosed maximal electroshock induced seizure mouse model assessed as suppression in hindlimb tonic extension by measuring time to peak effect; assay type: functional
[21] = system: CHO; test: Displacement of [3H]methyl-spiperone from human recombinant dopamine D4.4 receptor expressed in CHO cells at 100 uM measured after 60 mins by scintillation counting method relative to control; assay type: cell-based

Compound | inhibition [1] [%] | ED50 [2] [mg/kg] | TD50 [3] [mg/kg] | inhibition [4] [%] | Activity [5] | inhibition [6] [%] | inhibition [7] [%] | inhibition [8] [%] | inhibition [9] [%] | Activity [10] | inhibition [11] [%] | inhibition [12] [%] | inhibition [13] [%] | inhibition [14] [%] | inhibition [15] [%] | inhibition [16] [%] | inhibition [17] [%] | Time [18] [h] | inhibition [19] [%] | Time [20] [h] | other results
Cc1ccccc1/C=C/C(=O)N[C@@H](C)CO | 7.2 | 42.6 | 103 | -5.7 | Non-Toxic | 14.5 | 17.4 | 14.8 | 79.8 | Active | 11.5 | 13.2 | -3.7 | -1 | -3.5 | -5 | 1.2 | 0.5 | 0.9 | 0.25 | inhibition [21]: 23.2%
CC(O)CNC(=O)/C=C/c1ccc(Cl)cc1 (stereo not drawn) | 17.4 | 55.6 | 69.8 | 3.1 | Non-Toxic | 10.6 | 19 | 16 | 41.6 | Active | 17.3 | -1.3 | -2 | 9.3 | 22.9 | 1 | 19.5 | 0.25 | -1.9 | 0.5 | inhibition [21]: 28.2%
CCC(CO)NC(=O)/C=C/c1ccc(Cl)cc1 (stereo not drawn) | 18.2 | 53.8 | 79.5 | 3 | Non-Toxic | 4.3 | 18.7 | 29.5 | 58.2 | Active | 9.9 | 8.7 | -2.2 | 0.3 | 25.4 | 2.3 | 48.3 | 0.25 | -2.5 | 0.25 | inhibition [21]: 30.6%
